Where “and” joins values, the source holds several entries; their conditions need not be identical. Equal entries are not always repeated.
Organism: Rattus norvegicus
Experiment: DrugMatrix - Regimen: Daily Repeat
Format: toxicity, organism-based, Sprague-Dawley
Set-up: regimen Daily Repeat, gender Male, age 6-8 weeks
Details: in vivo, ip, route intraperitoneal, vehicle 100 % SALINE; for ABSOLUTE BASOPHIL / ABSOLUTE EOSINOPHIL / ABSOLUTE LYMPHOCYTE / ABSOLUTE MONOCYTE / ABSOLUTE SEGMENTED NEUTROPHIL / BASOPHIL / EOSINOPHIL / ERYTHROCYTE COUNT / HEMATOCRIT / HEMOGLOBIN / LEUKOCYTE COUNT / LYMPHOCYTE / MEAN CORPUSCULAR HEMOGLOBIN / MEAN CORPUSCULAR HEMOGLOBIN CONCENTRATION / MEAN CORPUSCULAR VOLUME / MONOCYTE / NEUTROPHIL / PLATELET COUNT: tissue Blood; for ALANINE AMINOTRANSFERASE / ALBUMIN / ALKALINE PHOSPHATASE / ASPARTATE AMINOTRANSFERASE / BLOOD UREA NITROGEN / CARBON DIOXIDE / CHOLESTEROL / CREATINE PHOSPHOKINASE / CREATININE / GLUCOSE / LACTATE DEHYDROGENASE / LIPASE / PHOSPHORUS / POTASSIUM / SODIUM / TOTAL BILIRUBIN / TOTAL PROTEIN / URIC ACID / CHLORIDE: tissue Plasma
[1] = 0 mg/kg, 120 h, dose level Control, time 5 day
[2] = 0 mg/kg, […], dose level Control, time 14 day
[3] = 0 mg/kg, […], dose level Control, time 28 day
[4] = 40 mg/kg, 120 h, dose level High, time 5 day

## GENTAMICIN
[1]
  ABSOLUTE BASOPHIL: 32 cells/µL
  ABSOLUTE EOSINOPHIL: 110 cells/µL
  ABSOLUTE LYMPHOCYTE: 6630 cells/µL
  ABSOLUTE MONOCYTE: 140 cells/µL
  ABSOLUTE SEGMENTED NEUTROPHIL: 1170 cells/µL
  BASOPHIL: 0.38% and 0.35%
  EOSINOPHIL: 1.28% and 0.62%
  ERYTHROCYTE COUNT: 7.45 x10E6/uL and 7.26 x10E6/uL
  HEMATOCRIT: 45.74% and 47.97%
  HEMOGLOBIN: 14.72 G/DL and 15.38 G/DL
  LEUKOCYTE COUNT: 8.11 x10E3/uL and 8.68 x10E3/uL
  LYMPHOCYTE: 81.3% and 86.77%
  MEAN CORPUSCULAR HEMOGLOBIN: 19.76 pg and 21.18 pg
  MEAN CORPUSCULAR HEMOGLOBIN CONCENTRATION: 32.16 G/DL and 32.05 G/DL
  MEAN CORPUSCULAR VOLUME: 61.38 fL and 66.15 fL
  MONOCYTE: 1.76% and 1.57%
  NEUTROPHIL: 14.9% and 9.53%
  PLATELET COUNT: 1322.4 x10E3/uL and 1786 x10E3/uL
  ALANINE AMINOTRANSFERASE: 25.8 u/L and 20.5 u/L
  ALBUMIN: 3.64 G/DL and 4.35 G/DL
  ALKALINE PHOSPHATASE: 300 u/L
  ASPARTATE AMINOTRANSFERASE: 81.4 u/L and 86.75 u/L
  BLOOD UREA NITROGEN: 14.4 mg/dL and 17 mg/dL
  CARBON DIOXIDE: 29 mmol/L
  CHOLESTEROL: 69.2 mg/dL and 51.25 mg/dL
  CREATINE PHOSPHOKINASE: 303.2 u/L and 384.75 u/L
  CREATININE: 0.56 mg/dL and 0.47 mg/dL
  GLUCOSE: 125.4 mg/dL and 128.75 mg/dL
  LACTATE DEHYDROGENASE: 105.4 u/L and 145 u/L
  LIPASE: 22.4 u/L and 13.25 u/L
  PHOSPHORUS: 11.8 mg/dL
  POTASSIUM: 5.52 MEQ/L and 6.58 MEQ/L
  SODIUM: 147 MEQ/L and 151 MEQ/L
  TOTAL BILIRUBIN: 0.2 mg/dL and 0.33 mg/dL
  TOTAL PROTEIN: 6.1 G/DL and 6.53 G/DL
  URIC ACID: 1.06 mg/dL and 1.95 mg/dL
[2]
  ABSOLUTE BASOPHIL: 130 cells/µL
  ABSOLUTE EOSINOPHIL: 140 cells/µL
  ABSOLUTE LYMPHOCYTE: 13500 cells/µL
  ABSOLUTE MONOCYTE: 400 cells/µL
  ABSOLUTE SEGMENTED NEUTROPHIL: 2330 cells/µL
  HEMATOCRIT: 45.98%
  HEMOGLOBIN: 15.17 G/DL
  MEAN CORPUSCULAR VOLUME: 59.4 fL
  NEUTROPHIL: 14.14%
  ALBUMIN: 3.66 G/DL
  CARBON DIOXIDE: 25 mmol/L
  CHLORIDE: 107 MEQ/L
  CREATINE PHOSPHOKINASE: 410.25 u/L
  SODIUM: 149.2 MEQ/L
  URIC ACID: 0.94 mg/dL
[3]
  ABSOLUTE BASOPHIL: 91 cells/µL
  ABSOLUTE EOSINOPHIL: 110 cells/µL
  ABSOLUTE LYMPHOCYTE: 9910 cells/µL
  ABSOLUTE MONOCYTE: 210 cells/µL
  ABSOLUTE SEGMENTED NEUTROPHIL: 1560 cells/µL
  BASOPHIL: 0.77%
  EOSINOPHIL: 0.92%
  ERYTHROCYTE COUNT: 8.21 x10E6/uL
  HEMATOCRIT: 47.53%
  HEMOGLOBIN: 15.65 G/DL
  LEUKOCYTE COUNT: 11.91 x10E3/uL
  LYMPHOCYTE: 83.34%
  MEAN CORPUSCULAR HEMOGLOBIN: 19.07 pg
  MEAN CORPUSCULAR HEMOGLOBIN CONCENTRATION: 32.93 G/DL
  MEAN CORPUSCULAR VOLUME: 57.9 fL
  MONOCYTE: 1.68%
  NEUTROPHIL: 12.97%
  PLATELET COUNT: 1323.8 x10E3/uL
  ALANINE AMINOTRANSFERASE: 30 u/L
  ALBUMIN: 3.71 G/DL
  ALKALINE PHOSPHATASE: 186.8 u/L
  ASPARTATE AMINOTRANSFERASE: 78.2 u/L
  BLOOD UREA NITROGEN: 14.2 mg/dL
  CHOLESTEROL: 44.9 mg/dL
  CREATINE PHOSPHOKINASE: 334.3 u/L
  CREATININE: 0.6 mg/dL
  GLUCOSE: 147.2 mg/dL
  LACTATE DEHYDROGENASE: 123.1 u/L
  LIPASE: 9.6 u/L
  PHOSPHORUS: 10.01 mg/dL
  POTASSIUM: 6.57 MEQ/L
  SODIUM: 149.5 MEQ/L
  TOTAL BILIRUBIN: 0.21 mg/dL
  TOTAL PROTEIN: 6.66 G/DL
  URIC ACID: 1.26 mg/dL
[4]
  ABSOLUTE BASOPHIL: 80 cells/µL
  ABSOLUTE EOSINOPHIL: 74 cells/µL
  ABSOLUTE LYMPHOCYTE: 8100 cells/µL
  ABSOLUTE MONOCYTE: 240 cells/µL
  ABSOLUTE SEGMENTED NEUTROPHIL: 1450 cells/µL
  BASOPHIL: 0.76% and 0.38%
  EOSINOPHIL: 0.78% and 0.9%
  ERYTHROCYTE COUNT: 6.83 x10E6/uL and 7.91 x10E6/uL
  HEMATOCRIT: 41.68% and 49.95%
  HEMOGLOBIN: 15.98 G/DL
  LEUKOCYTE COUNT: 10.02 x10E3/uL and 8.78 x10E3/uL
  LYMPHOCYTE: 80.04% and 84.55%
  MEAN CORPUSCULAR HEMOGLOBIN: 20.3 pg and 20.2 pg
  MEAN CORPUSCULAR HEMOGLOBIN CONCENTRATION: 33.3 G/DL and 31.98 G/DL
  MEAN CORPUSCULAR VOLUME: 61 fL
  MONOCYTE: 2.58% and 2.52%
  NEUTROPHIL: 15.12% and 10.23%
  PLATELET COUNT: 1275.4 x10E3/uL and 1549.75 x10E3/uL
  ALANINE AMINOTRANSFERASE: 28.6 u/L and 25 u/L
  ALBUMIN: 3.36 G/DL and 4.35 G/DL
  ALKALINE PHOSPHATASE: 214.2 u/L and 307.5 u/L
  ASPARTATE AMINOTRANSFERASE: 87.2 u/L and 90.25 u/L
  BLOOD UREA NITROGEN: 15 mg/dL and 15.25 mg/dL
  CARBON DIOXIDE: 25.75 mmol/L
  CHLORIDE: 107.4 MEQ/L
  CHOLESTEROL: 60.8 mg/dL and 65.25 mg/dL
  CREATINE PHOSPHOKINASE: 313.5 u/L and 416.75 u/L
  CREATININE: 0.44 mg/dL and 0.45 mg/dL
  GLUCOSE: 128 mg/dL and 118.5 mg/dL
  LACTATE DEHYDROGENASE: 133.8 u/L and 153 u/L

— ChEMBL document CHEMBL3885881, “DrugMatrix”
